According to patent US12054483B2, “Small molecule inhibitors of DYRK/CLK and uses thereof” (Arizona Board of Regents on Behalf of the University of …, priority 2018, dated 2024):

Target: DYRK1A (Homo sapiens, UniProt Q13627)
Assay: Affinity testing of compounds with DYRK1A (KD)
Assay type: binding
Details: DYRK1A affinity key classes

Compound: Fc1c(-c2ccncc2)ccc2ncn(-c3ccc4c(c3)OCO4)c12 [Compound 1, 1-(benzo[d][1,3]dioxol-5-yl)-7-fluoro-6-(pyridin-4-yl)-1H-benzo[d]imidazole]
- Kd: 0.5 to 100 nM

Compound: Fc1cc2ncn(-c3ccc4c(c3)OCO4)c2cc1-c1ccncc1 [Compound 2, 1-(benzo[d][1,3]dioxol-5-yl)-5-fluoro-6-(pyridin-4-yl)-1H-benzo[d]imidazole]
- Kd: 0.5 to 100 nM

Compound: Fc1cc(-c2ccncc2)cc2c1ncn2-c1ccc2c(c1)OCO2 [Compound 3, 1-(benzo[d][1,3]dioxol-5-yl)-4-fluoro-6-(pyridin-4-yl)-1H-benzo[d]imidazole]
- Kd: 0.5 to 100 nM

Compound: c1cc(-c2ccc3ncn(-c4ccc5c(c4)OCO5)c3n2)ccn1 [Compound 4, 3-(benzo[d][1,3]dioxol-5-yl)-5-(pyridin-4-yl)-3H-imidazo[4,5-b]pyridine]
- Kd: 0.5 to 100 nM

Compound: COC(=O)c1ccc(-n2cnc3ccc(-c4ccncc4)c(F)c32)cc1 [Compound 5, methyl 4-(7-fluoro-6-(pyridin-4-yl)-1H-benzo[d]imidazol-1-yl)benzoate]
- Kd: 0.5 to 100 nM

Compound: O=C(O)c1ccc(-n2cnc3ccc(-c4ccncc4)c(F)c32)cc1 [Compound 6, 4-(7-fluoro-6-(pyridin-4-yl)-1H-benzo[d]imidazol-1-yl)benzoic acid]
- Kd: 101 to 500 nM

Compound: COC(=O)c1ccc(-n2cnc3cc(F)c(-c4ccncc4)cc32)cc1 [Compound 7, methyl 4-(5-fluoro-6-(pyridin-4-yl)-1H-benzo[d]imidazol-1-yl)benzoate]
- Kd: 101 to 500 nM

Compound: O=C(O)c1ccc(-n2cnc3cc(F)c(-c4ccncc4)cc32)cc1 [Compound 8, 4-(5-fluoro-6-(pyridin-4-yl)-1H-benzo[d]imidazol-1-yl)benzoic acid]
- Kd: 101 to 500 nM

Compound: COC(=O)c1ccc(-n2cnc3ccc(-c4ccncc4)nc32)cc1 [Compound 9, methyl 4-(5-(pyridin-4-yl)-3H-imidazo[4,5-b]pyridin-3-yl)benzoate]
- Kd: 0.5 to 100 nM

Compound: O=C(O)c1ccc(-n2cnc3ccc(-c4ccncc4)nc32)cc1 [Compound 10, 4-(5-(pyridin-4-yl)-3H-imidazo[4,5-b]pyridin-3-yl)benzoic acid]
- Kd: 0.5 to 100 nM

Compound: N#Cc1ccnc(-n2cnc3ccc(-c4ccncc4)c(F)c32)c1 [Compound 11, 2-(7-fluoro-6-(pyridin-4-yl)-1H-benzo[d]imidazol-1-yl)isonicotinonitrile]
- Kd: 101 to 500 nM

Compound: NC(=O)c1ccnc(-n2cnc3ccc(-c4ccncc4)c(F)c32)c1 [Compound 12, 2-(7-fluoro-6-(pyridin-4-yl)-1H-benzo[d]imidazol-1-yl)isonicotinamide]
- Kd: 101 to 500 nM

Compound: O=C(O)c1ccnc(-n2cnc3ccc(-c4ccncc4)c(F)c32)c1 [Compound 13, 2-(7-fluoro-6-(pyridin-4-yl)-1H-benzo[d]imidazol-1-yl)isonicotinic acid]
- Kd: 501 to 10000 nM

Compound: N#Cc1ccc(-n2cnc3ccc(-c4ccncc4)c(F)c32)nc1 [Compound 14, 6-(7-fluoro-6-(pyridin-4-yl)-1H-benzo[d]imidazol-1-yl)nicotinonitrile]
- Kd: 0.5 to 100 nM

Compound: NC(=O)c1ccc(-n2cnc3ccc(-c4ccncc4)c(F)c32)nc1 [Compound 15, 6-(7-fluoro-6-(pyridin-4-yl)-1H-benzo[d]imidazol-1-yl)nicotinamide]
- Kd: 0.5 to 100 nM

Compound: COC(=O)c1ccc(-n2cnc3c(F)cc(-c4ccncc4)cc32)cc1 [Compound 16, methyl 4-(4-fluoro-6-(pyridin-4-yl)-1H-benzo[d]imidazol-1-yl)benzoate]
- Kd: 0.5 to 100 nM

Compound: O=C(O)c1ccc(-n2cnc3c(F)cc(-c4ccncc4)cc32)cc1 [Compound 17, 4-(4-fluoro-6-(pyridin-4-yl)-1H-benzo[d]imidazol-1-yl)benzoic acid]
- Kd: 101 to 500 nM

Compound: Cc1nc2ccc(-c3ccncc3)c(F)c2n1-c1ccc2c(c1)OCO2 [Compound 19, 1-(benzo[d][1,3]dioxol-5-yl)-7-fluoro-2-methyl-6-(pyridin-4-yl)-1H-benzo[d]imidazole]
- Kd: 0.5 to 100 nM

Compound: Cc1nc2ccc(-c3cn[nH]c3)c(F)c2n1-c1ccc2c(c1)OCO2 [Compound 20, 1-(benzo[d][1,3]dioxol-5-yl)-7-fluoro-2-methyl-6-(1H-pyrazol-4-yl)-1H-benzo[d]imidazole]
- Kd: 0.5 to 100 nM

Compound: Fc1c(-c2ccncc2)ccc2nc(C3CC3)n(-c3ccc4c(c3)OCO4)c12 [Compound 21, 1-(benzo[d][1,3]dioxol-5-yl)-2-cyclopropyl-7-fluoro-6-(pyridin-4-yl)-1H-benzo[d]imidazole]
- Kd: 501 to 10000 nM

Compound: c1cc(-c2ccc3ncc(-c4ccc5c(c4)OCO5)n3n2)ccn1 [Compound 23, 3-(benzo[d][1,3]dioxol-5-yl)-6-(pyridin-4-yl)imidazo[1,2-b]pyridazine]
- Kd: 0.5 to 100 nM

Compound: Nc1cc(-c2ccc3nccn3n2)ccn1 [Compound 24, 4-(imidazo[1,2-b]pyridazin-6-yl)pyridin-2-amine]
- Kd: 0.5 to 100 nM

Compound: Cc1cn2nc(-c3ccnc(N)c3)ccc2n1 [Compound 25, 4-(2-methylimidazo[1,2-b]pyridazin-6-yl)pyridin-2-amine]
- Kd: 0.5 to 100 nM

Compound: c1cn2nc(-c3cn[nH]c3)ccc2n1 [Compound 26, 6-(1H-pyrazol-4-yl)imidazo[1,2-b]pyridazine]
- Kd: 101 to 500 nM

Compound: c1n[nH]cc1-c1ccc2ncc(-c3ccc4c(c3)OCO4)n2n1 [Compound 27, 3-(benzo[d][1,3]dioxol-5-yl)-6-(1H-pyrazol-4-yl)imidazo[1,2-b]pyridazine]
- Kd: 0.5 to 100 nM

Compound: Cc1nc2ccc(-c3ccncc3)nc2n1-c1ccc(CN2CCOCC2)cc1 [Compound 28, 4-(4-(2-methyl-5-(pyridin-4-yl)-3H-imidazo[4,5-b]pyridin-3-yl)benzyl)morpholine]
- Kd: 0.5 to 100 nM

Compound: Cc1nc2ccc(-c3ccncc3)nc2n1-c1ccc2c(c1)OCO2 [Compound 29, 3-(benzo[d][1,3]dioxol-5-yl)-2-methyl-5-(pyridin-4-yl)-3H-imidazo[4,5-b]pyridine]
- Kd: 0.5 to 100 nM

Compound: Cc1nc2ccc(-c3cn[nH]c3)nc2n1-c1ccc2c(c1)OCO2 [Compound 30, 3-(benzo[d][1,3]dioxol-5-yl)-2-methyl-5-(1H-pyrazol-4-yl)-3H-imidazo[4,5-b]pyridine]
- Kd: 0.5 to 100 nM

Compound: Cc1nc2ccc(-c3cnn(C)c3)nc2n1-c1ccc2c(c1)OCO2 [Compound 31, 3-(benzo[d][1,3]dioxol-5-yl)-2-methyl-5-(1-methyl-1H-pyrazol-4-yl)-3H-imidazo[4,5-b]pyridine]
- Kd: 101 to 500 nM

Compound: Cc1nc2ccc(-c3ccncc3)nc2n1-c1ccc2[nH]cnc2c1 [Compound 32, 3-(1H-benzo[d]imidazol-5-yl)-2-methyl-5-(pyridin-4-yl)-3H-imidazo[4,5-b]pyridine]
- Kd: 0.5 to 100 nM

Compound: Cc1nc2ccc(-c3cn[nH]c3)nc2n1-c1ccc2[nH]cnc2c1 [Compound 33, 3-(1H-benzo[d]imidazol-5-yl)-2-methyl-5-(1H-pyrazol-4-yl)-3H-imidazo[4,5-b]pyridine]
- Kd: 0.5 to 100 nM

Compound: Cc1nc2ccc(-c3ccncc3)nc2n1-c1ccc2[nH]c(C(F)(F)F)nc2c1 [Compound 34, 2-methyl-5-(pyridin-4-yl)-3-(2-(trifluoromethyl)-1H-benzo[d]imidazol-5-yl)-3H-imidazo[4,5-b]pyridine]
- Kd: 0.5 to 100 nM

Compound: Cc1nc2cc(-n3c(C)nc4ccc(-c5ccncc5)nc43)ccc2o1 [Compound 35, 2-methyl-5-(2-methyl-5-(pyridin-4-yl)-3H-imidazo[4,5-b]pyridin-3-yl)benzo[d]oxazole]
- Kd: 101 to 500 nM

Compound: Cc1nc2cc(-n3c(C)nc4ccc(-c5cn[nH]c5)nc43)ccc2o1 [Compound 36, 2-methyl-5-(2-methyl-5-(1H-pyrazol-4-yl)-3H-imidazo[4,5-b]pyridin-3-yl)benzo oxazole]
- Kd: 101 to 500 nM

Compound: Cc1nc2ccc(-c3ccncc3)nc2n1-c1ccc2c(c1)OCC(=O)N2 [Compound 37, 7-(2-methyl-5-(pyridin-4-yl)-3H-imidazo[4,5-b]pyridin-3-yl)-2H-benzo[b][1,4]oxazin-3(4H)-one]
- Kd: 0.5 to 100 nM

Compound: CC(=O)N1C[C@@H]2[C@H](C1)[C@H]2n1c(C)nc2ccc(-c3ccncc3)nc21 [Compound 38, 1-((1R,5S,6s)-6-(2-methyl-5-(pyridin-4-yl)-3H-imidazo[4,5-b]pyridin-3-yl)-3-azabicyclo[3.1.0]hexan-3-yl)ethan-1-one]
- Kd: 0.5 to 100 nM

Compound: CC(=O)N1CC[C@H](n2c(C)nc3ccc(-c4ccncc4)nc32)C1 [Compound 39, (S)-1-(3-(2-methyl-5-(pyridin-4-yl)-3H-imidazo[4,5-b]pyridin-3-yl)pyrrolidin-1-yl)ethan-1-one]
- Kd: 101 to 500 nM

Compound: CCOC(=O)c1ccc(-n2c(C)nc3ccc(-c4ccncc4)nc32)cc1 [Compound 40, ethyl 4-(2-methyl-5-(pyridin-4-yl)-3H-imidazo[4,5-b]pyridin-3-yl)benzoate]
- Kd: 0.5 to 100 nM

Compound: Cc1nc2ccc(-c3ccncc3)nc2n1-c1ccc(=O)n(C)c1 [Compound 41, 1-methyl-5-(2-methyl-5-(pyridin-4-yl)-3H-imidazo[4,5-b]pyridin-3-yl)pyridin-2(1H)-one]
- Kd: 101 to 500 nM

Compound: Cc1nc2ccc(-c3ccncc3)nc2n1-c1ccc(C#N)cn1 [Compound 42, 6-(2-methyl-5-(pyridin-4-yl)-3H-imidazo[4,5-b]pyridin-3-yl)nicotinonitrile]
- Kd: 0.5 to 100 nM

Compound: COc1ccc(-n2c(C)nc3ccc(-c4ccncc4)nc32)cc1 [Compound 43, 3-(4-methoxyphenyl)-2-methyl-5-(pyridin-4-yl)-3H-imidazo[4,5-b]pyridine]
- Kd: 0.5 to 100 nM

Compound: Cc1nc2ccc(-c3ccnc(N)c3)nc2n1-c1ccc(CN2CCOCC2)cc1 [Compound 44, 4-(2-methyl-3-(4-(morpholinomethyl)phenyl)-3H-imidazo[4,5-b]pyridin-5-yl)pyridin-2-amine]
- Kd: 0.5 to 100 nM

Compound: Cc1nc2ccc(-c3cc[nH]c(=O)c3)nc2n1-c1ccc(CN2CCOCC2)cc1 [Compound 45, 4-(2-methyl-3-(4-(morpholinomethyl)phenyl)-3H-imidazo[4,5-b]pyridin-5-yl)pyridin-2(1H)-one]
- Kd: 501 to 10000 nM

Compound: Cc1nc2ccc(-c3ccnc(N)c3)nc2n1-c1ccc2c(c1)OCC(=O)N2 [Compound 46, 7-(5-(2-aminopyridin-4-yl)-2-methyl-3H-imidazo[4,5-b]pyridin-3-yl)-2H-benzo[b][1,4]oxazin-3(4H)-one]
- Kd: 0.5 to 100 nM
